# Data from patent publication US8609671B2, “Method of inhibiting hepatic fibrosis as a result of liver replacement or repair using A2B adenosine receptor antagonists” (Gilead Sciences, Inc., priority 2006, dated 2013).
# “Also recorded” adds a separate entry of the source.
# What was measured:
# HHSCs [1] = test: IL-6 release by HHSCs (ELISA); assay type: cell-based, human; set-up: maximal increase of IL-6 release over the basal level: concentration or dose not given beside the values
# Procedure: (§1) Primary cultured normal human hepatic stellate Cells (HHSCs) were obtained from ScienCell Research Laboratories (San Diego, Calif.) and cultured using stellate cell growth medium (ScienCell Research Laboratories). HHSCs were routinely grown in a humidified incubator with 5% CO2 at 37° C. and reseeded when they reached about 80-90% confluency. Each re-seeding is called a passage. Cells from passages 2 to 5 were used in the following studies.
# (§2) HHSCs were seeded into 12-well tissue culture plates at a density of 1×10^5 cells/well in stellate cell growth medium and allowed to adhere overnight and reach ˜90% confluency. Cells were washed twice in HEPES buffered saline, and cultured in DMEM containing various agonists or antagonists of AdoRs for 1 or 24 h.
# (§3) The concentration of IL-6 in the cell medium was determined using ELISA kits obtained from Biosource (Camarillo, Calif.) according to the manufacturer's instructions. The minimal detection levels of IL-6 with these kits were 2 pg/ml. The concentration of soluble collagen in the cell medium was measured using the Sircol collagen assay (Biocolor Ltd., Belfast N. Ireland) according to manufacture's instructions. The activity of AST in mouse plasma was determined using the Infinity™ AST assay (Thermo Electron Corporation, Waltham, Mass.)
# HHSCs [2] = test: Measurement of cAMP accumulation in HHSCs; assay type: cell-based, human; settings: for effect on forskolin-induced cellular cAMP accumulation: agonist 1 μM, forskolin 10 μM; for effect of agonist on cellular cAMP accumulation: with rolipram 50 μM, 15 min, CGS-21680 (=10 μM)
# Procedure: as §1
# Cells were harvested using 0.0025% trypsin and 2 mM EDTA in PBS, washed and resuspended in phenol-free DMEM to a concentration of 1×10^6 cells/ml, and then incubated with 1 U/ml of ADA for 30 min at room temperature. Cells were then treated with AdoR agonists, antagonists, and forskolin in the presence of 50 μM of the phosphodiesterase IV inhibitor, rolipram. After incubating for 15 min at 37° C., cells were lysed and cAMP concentrations were determined using cAMP-Screen Direct™ System (Applied Biosystems) according to the manufacturer's instructions.
# HHSCs [3] = test: mRNA levels of α-smooth muscle actin and α-1 pro-collagen in HHSCs (real-time RT-PCR); assay type: cell-based, human; settings: NECA 10 μM, 1 h
# Procedure: HHSCs were seeded into 12-well tissue culture plates at a density of 1×10^5 cells/well in stellate cell growth medium and allowed to adhere overnight and reach ˜90% confluency. Cells were washed twice in HEPES buffered saline, and cultured in DMEM containing various agonists or antagonists of AdoRs for 1 or 24 h. Total RNA was extracted from HHSCs using the Stratagene Absolutely RNA™ RT-PCR Miniprep Kit followed by DNase treatment to eliminate potential genomic DNA contamination. Real-time RT-RCR for adenosine receptors was performed as previously described in Zhong et al. (2004) Am J Respir Cell Mol Biol; 30(1):118-125. The specific primers for α-smooth muscle actin used were: while the primers for α-1 pro-collagen were: and each of these primers were designed using Primer Express 2.0 (Applied Biosystems) following the recommended guidelines based on sequences from Genbank. At the end of the PCR cycle, a dissociation curve was generated to ensure the amplification of a single product, and the threshold cycle time (Ct value) for each gene was determined. Relative mRNA levels were calculated based on the Ct values, normalized to β-actin in the same sample, and presented as percentages of β-actin mRNA. Measurement of cAMP Accumulation
# HHSCs [4] = test: Collagen production by HHSCs (Sircol collagen assay); assay type: cell-based, human; settings: 24 h
# Procedure: as §2, §3
# [5] = target: T1, Human A1 adenosine receptor (Homo sapiens, UniProt P30542); settings: read-out: affinity for A1 receptor (Ki); cited from earlier work
# T1 sequence (P30542 1-326): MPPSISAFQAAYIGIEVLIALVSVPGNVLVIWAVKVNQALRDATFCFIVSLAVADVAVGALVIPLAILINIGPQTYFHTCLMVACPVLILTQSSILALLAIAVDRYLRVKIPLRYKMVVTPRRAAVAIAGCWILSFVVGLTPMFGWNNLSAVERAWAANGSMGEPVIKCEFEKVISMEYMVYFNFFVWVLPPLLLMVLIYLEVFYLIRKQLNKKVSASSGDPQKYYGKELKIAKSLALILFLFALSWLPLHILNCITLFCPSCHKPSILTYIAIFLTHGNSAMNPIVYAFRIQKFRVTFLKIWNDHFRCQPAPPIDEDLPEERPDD
# [6] = target: T2, Human A2A adenosine receptor (Homo sapiens, UniProt P29274); settings: read-out: affinity for A2A receptor (Ki); cited from earlier work
# T2 construct: expressed in transfected cells; host or cells: HEK-293 (HEK-A2A), membrane preparation
# [7] = target: T3, Human A3 adenosine receptor (Homo sapiens, UniProt P0DMS8); settings: read-out: affinity for A3 receptor (Ki); cited from earlier work
# T3 construct: expressed in transfected cells; host or cells: CHO (CHO-A3), membrane preparation
# T3 sequence (P0DMS8 1-318): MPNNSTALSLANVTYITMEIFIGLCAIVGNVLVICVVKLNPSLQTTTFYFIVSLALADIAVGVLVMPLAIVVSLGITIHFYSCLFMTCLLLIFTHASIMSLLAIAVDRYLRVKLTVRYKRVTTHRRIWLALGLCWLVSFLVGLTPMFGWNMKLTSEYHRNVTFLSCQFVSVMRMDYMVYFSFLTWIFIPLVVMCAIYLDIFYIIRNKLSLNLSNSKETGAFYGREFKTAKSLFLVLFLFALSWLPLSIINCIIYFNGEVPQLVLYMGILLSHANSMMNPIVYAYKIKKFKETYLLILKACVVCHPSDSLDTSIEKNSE
# ADA^−/− mice = test: Plasma AST levels in ADA-deficient mice; assay type: in vivo; settings: 1 mg/kg per injection i.p. morning and evening for 17 days, vs vehicle
# Procedure: as §3
# Adenosine deaminase (ADA)-deficient mice were generated and genotyped as described in Blackburn et al. (1998), J Biol Chem, 273(9):5093-5100. Mice homozygous for the null Ada allele were designated ADA-deficient (ADA^−/−), while mice heterozygous for the null Ada allele were designated as ADA control mice (ADA^+). All mice were on a mixed 129sv/C57BL/6J background and all phenotypic comparisons were performed amongst littermates. Animal care was in accordance with institutional and NIH guidelines. Mice were housed in ventilated cages equipped with microisolator lids and maintained under strict containment protocols. No evidence of bacterial, parasitic, or fungal infection was found, and serologies on cage littermates were negative for 12 of the most common murine viruses. […]
# T2 sequence (P29274 whole entry): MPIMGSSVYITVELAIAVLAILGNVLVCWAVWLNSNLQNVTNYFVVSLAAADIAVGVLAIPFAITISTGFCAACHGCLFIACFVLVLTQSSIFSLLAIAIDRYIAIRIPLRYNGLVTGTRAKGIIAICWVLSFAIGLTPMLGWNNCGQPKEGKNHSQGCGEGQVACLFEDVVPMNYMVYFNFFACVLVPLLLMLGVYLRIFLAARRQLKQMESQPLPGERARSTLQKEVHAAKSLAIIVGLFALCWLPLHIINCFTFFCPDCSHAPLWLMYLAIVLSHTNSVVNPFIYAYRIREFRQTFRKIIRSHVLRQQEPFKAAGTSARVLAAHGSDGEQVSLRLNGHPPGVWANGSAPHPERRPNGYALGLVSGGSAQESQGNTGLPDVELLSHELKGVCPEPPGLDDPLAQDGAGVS
smiles,measurement,setting,value
Nc1ncnc2c1ncn2[C@@H]1O[C@H](CO)[C@@H](O)[C@H]1O [adenosine],maximal increase of IL-6 release over the basal level,HHSCs [1],11.9±3.1 fold
same,effect on IL-6 release,HHSCs [1]; 24 h,increased IL-6 release in a concentration-dependent manner
"OC[C@H]1O[C@@H](n2cnc3c(NC4CCCC4)ncnc32)[C@H](O)[C@@H]1O [CPA, N6-cyclopentyladenosine]",effect on forskolin-induced cellular cAMP accumulation,HHSCs [2],Lack of effect; also recorded: failed to inhibit
CNC(=O)[C@H]1O[C@@H](n2cnc3c(NCc4cccc(I)c4)ncnc32)[C@H](O)[C@@H]1O [IB-MECA],effect on forskolin-induced cellular cAMP accumulation,HHSCs [2],Lack of effect; also recorded: failed to inhibit
CCNC(=O)[C@H]1O[C@@H](n2cnc3c(N)nc(NCCc4ccc(CCC(=O)O)cc4)nc32)[C@H](O)[C@@H]1O [CGS-21680],effect of agonist on cellular cAMP accumulation,HHSCs [2],did not cause a significant increase
"CCNC(=O)[C@H]1O[C@@H](n2cnc3c(N)ncnc32)[C@H](O)[C@@H]1O [NECA, 5′-(N-ethylcarboxamido)-adenosine]",effect of agonist on cellular cAMP accumulation,HHSCs [2],increased cellular cAMP accumulation in a concentration-dependent manner
same,maximal increase of IL-6 release over the basal level,HHSCs [1],11.9±3.1 fold
same,effect on IL-6 release,HHSCs [1]; 24 h,increased IL-6 release in a concentration-dependent manner
same,increase of IL-6 release compared to vehicle-treated cells,"HHSCs [1]; NECA 100 μM, 24 h",11.9±3.1 fold
same,expression of α-1 pro-collagen mRNA,HHSCs [3],significantly increased
same,expression of α-smooth muscle actin mRNA,HHSCs [3],significantly increased
same,release of soluble collagen,HHSCs [4],increased; also recorded: significant increase
"CCCn1c(=O)[nH]c2nc(-c3cnn(Cc4noc(-c5ccc(Cl)cc5)n4)c3)[nH]c2c1=O [compound (1), 8-(1-{[5-(4-chlorophenyl)(1,2,4-oxadiazol-3-yl)]methyl}pyrazol-4-yl)-1-propyl-1,3,7-trihydropurine-2,6-dione]",effect on NECA-induced cellular cAMP accumulation,HHSCs [2]; antagonist 1 μM,significantly attenuated
same,reduction of NECA-increased IL-6 release,HHSCs [1]; compound 1 μM together with NECA 10 μM,90.7±0.1%
same,effect on NECA-induced collagen production,HHSCs [4]; NECA 10 μM,abolished
same,Ki,[5],> 5 µM
same,Ki,[6],> 5 µM
same,Ki,[7],> 5 µM
"CCCn1c(=O)c2[nH]c(-c3cnn(Cc4cccc(C(F)(F)F)c4)c3)nc2n(CC)c1=O [compound (2), 3-ethyl-1-propyl-8-(1-{[3-(trifluoromethyl)phenyl]methyl}pyrazol-4-yl)-1,3,7-trihydropurine-2,6-dione]",plasma AST levels,ADA^−/− mice,significant reduction
